In PubChem BioAssay AID248 (DTP/NCI, 2004):
Where “and” joins values, the source holds several entries; their conditions need not be identical. Identical values can stand only once. Inconclusive results and toxic doses are left out. No stated cut-off is given here; in the data, active means T/C of 150% or more; inactive means T/C below 125%.

Test system: L1210 leukemia ip in BDF1 mice, survival T/C
Assay: NCI In Vivo Anticancer Drug Screen. Data for tumor model L1210 Leukemia (intraperitoneal) in B6D2F1 (BDF1) mice
Conditions: endpoint: mean survival time, higher = longer survival
Outline: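 Tumor was transplanted into mice, which were then dosed with test compound or vehicle alone. Survival was recorded for each group, and the treated figure was expressed relative to the control figure.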

[1] = dose: 25.0 mg/kg/injection, schedule: Q01DX009 (ip), vehicle: saline
[2] = dose: 25.0 mg/kg/injection, schedule: Q04DX003 (ip), vehicle: saline
[3] = dose: 50.0 mg/kg/injection, schedule: Q01DX009 (ip), vehicle: saline
[4] = dose: 50.0 mg/kg/injection, schedule: Q04DX003 (ip), vehicle: saline
[5] = dose: 100.0 mg/kg/injection, schedule: Q04DX003 (ip), vehicle: saline
[6] = dose: 100.0 mg/kg/injection, schedule: Q04DX002 (ip), vehicle: Klucel (hydroxypropylcellulose) (HPC)
[7] = dose: 200.0 mg/kg/injection, schedule: Q04DX002 (ip), vehicle: Klucel (hydroxypropylcellulose) (HPC)
[8] = dose: 400.0 mg/kg/injection, schedule: Q04DX002 (ip), vehicle: Klucel (hydroxypropylcellulose) (HPC)
[9] = dose: 100.0 mg/kg/injection, schedule: Q04DX002 (ip), vehicle: saline with Tween-80
[10] = dose: 200.0 mg/kg/injection, schedule: Q04DX002 (ip), vehicle: saline with Tween-80
[11] = dose: 400.0 mg/kg/injection, schedule: Q04DX002 (ip), vehicle: saline with Tween-80
[12] = dose: 100.0 mg/kg/injection, schedule: Q01DX009 (ip), vehicle: saline with Tween-80
[13] = dose: 200.0 mg/kg/injection, schedule: Q01DX009 (ip), vehicle: saline with Tween-80
[14] = dose: 200.0 mg/kg/injection, schedule: Q04DX003 (ip), vehicle: saline
[15] = dose: 100.0 mg/kg/injection, schedule: Q01DX009 (ip), vehicle: Klucel (hydroxypropylcellulose) (HPC)
[16] = dose: 200.0 mg/kg/injection, schedule: Q01DX009 (ip), vehicle: Klucel (hydroxypropylcellulose) (HPC)
[17] = dose: 100.0 mg/kg/injection, schedule: Q04DX003 (ip), vehicle: saline with Tween-80
[18] = dose: 400.0 mg/kg/injection, schedule: Q01DX009 (ip), vehicle: Klucel (hydroxypropylcellulose) (HPC)
[19] = dose: 100.0 mg/kg/injection, schedule: Q04DX003 (ip), vehicle: Klucel (hydroxypropylcellulose) (HPC)
[20] = dose: 200.0 mg/kg/injection, schedule: Q04DX003 (ip), vehicle: Klucel (hydroxypropylcellulose) (HPC)
[21] = dose: 400.0 mg/kg/injection, schedule: Q04DX003 (ip), vehicle: Klucel (hydroxypropylcellulose) (HPC)

Measured: T/C

CN1CC2(CCN(CC3COc4ccccc4O3)CC2)OC1=O (stereo unspecified)
inactive: dose: 50.0 mg/kg/injection, schedule: Q01DX001 (ip), vehicle: Klucel (hydroxypropylcellulose) (HPC) 93 % of control | dose: 100.0 mg/kg/injection, schedule: Q01DX001 (ip), vehicle: Klucel (hydroxypropylcellulose) (HPC) 103 % of control | dose: 200.0 mg/kg/injection, schedule: Q01DX001 (ip), vehicle: Klucel (hydroxypropylcellulose) (HPC) 117 % of control | dose: 400.0 mg/kg/injection, schedule: Q01DX001 (ip), vehicle: Klucel (hydroxypropylcellulose) (HPC) 107 % of control

O=C(CBr)c1ccc(F)cc1
inactive: dose: 2.0 mg/kg/injection, schedule: Q01DX015 (ip), vehicle: carboxymethylcellulose (CMC) 93 % of control | dose: 4.0 mg/kg/injection, schedule: Q01DX015 (ip), vehicle: carboxymethylcellulose (CMC) 105 % of control | dose: 5.0 mg/kg/injection, schedule: Q01DX001 (ip), vehicle: saline 97 % of control | dose: 8.0 mg/kg/injection, schedule: Q01DX015 (ip), vehicle: carboxymethylcellulose (CMC) 88 % of control | dose: 10.0 mg/kg/injection, schedule: Q01DX001 (ip), vehicle: saline 100 % of control | dose: 15.0 mg/kg/injection, schedule: Q01DX015 (ip), vehicle: carboxymethylcellulose (CMC) 97 % of control | dose: 20.0 mg/kg/injection, schedule: Q01DX001 (ip), vehicle: saline 92 % of control | dose: 40.0 mg/kg/injection, schedule: Q01DX001 (ip), vehicle: saline 92 % of control | dose: 80.0 mg/kg/injection, schedule: Q01DX001 (ip), vehicle: saline 97 % of control

CSc1ncc2n1C=CN(C(=O)c1ccc([N+](=O)[O-])cc1)C2O (stereo unspecified)
inactive: [1] 89 % of control | [2] 106 % of control | [3] 89 % of control | [4] 111 % of control | [5] 102 % of control

Cc1ccc(C)c(NC(=O)Oc2ccc(Cl)c(C)c2)c1
inactive: [6] 102 % of control | [7] 105 % of control | [8] 108 % of control

O=C1NC(=S)S/C1=C/C=C/c1ccccc1
inactive: [9] 95 % of control | [10] 87 % of control | [11] 98 % of control

Cc1cc(-c2ccccc2)c2ccccc2c1N(CC(=O)O)S(=O)(=O)c1ccccc1
inactive: [12] 105 % of control | [5] 98 % of control | [13] 93 % of control | [14] 104 % of control | dose: 400.0 mg/kg/injection, schedule: Q04DX003 (ip), vehicle: saline 102 % of control

O=C(NCc1cnccn1)c1ccccc1
inactive: [12] 104 % of control | [13] 98 % of control | dose: 400.0 mg/kg/injection, schedule: Q01DX009 (ip), vehicle: saline with Tween-80 92 % of control

Cc1cccc(NC(=O)c2c(Br)c(Br)c(Br)c(Br)c2C(=O)O)c1C
inactive: [15] 100 % of control | [16] 103 % of control

O=C(Oc1c(Cl)cc([N+](=O)[O-])cc1[N+](=O)[O-])Sc1ccccc1
inactive: [9] 103 % of control | [10] 100 % of control | [11] 100 % of control

CCCCCCCCCCCC1=NCCN1
inactive: dose: 6.25 mg/kg/injection, schedule: Q01DX009 (ip), vehicle: saline 91 % of control | dose: 12.5 mg/kg/injection, schedule: Q01DX009 (ip), vehicle: saline 91 % of control | dose: 12.5 mg/kg/injection, schedule: Q04DX003 (ip), vehicle: saline 89 % of control | dose: 25.0 mg/kg/injection, schedule: Q01DX009 (ip), vehicle: saline with Tween-80 93 % of control | [1] 93 % of control | dose: 25.0 mg/kg/injection, schedule: Q04DX003 (ip), vehicle: saline with Tween-80 97 % of control | [2] 94 % of control | [3] 91 % of control | dose: 50.0 mg/kg/injection, schedule: Q04DX003 (ip), vehicle: saline with Tween-80 97 % of control | [4] 94 % of control | [15] 100 % of control | [17] 100 % of control | [16] 96 % of control | [18] 88 % of control

O=C(c1ccccc1)C(Cc1ccccc1)C(Cc1ccccc1)c1ccccc1 (stereo unspecified)
inactive: dose: 100.0 mg/kg/injection, schedule: Q04DX003 (ip), vehicle: acetone 93 % of control | dose: 200.0 mg/kg/injection, schedule: Q04DX003 (ip), vehicle: acetone 98 % of control | dose: 400.0 mg/kg/injection, schedule: Q04DX003 (ip), vehicle: acetone 92 % of control

CC/C(C[n+]1ccccc1)=N\Nc1ccc([N+](=O)[O-])cc1[N+](=O)[O-]
inactive: dose: 5.0 mg/kg/injection, schedule: Q01DX001 (ip), vehicle: acetone 102 % of control | dose: 10.0 mg/kg/injection, schedule: Q01DX001 (ip), vehicle: acetone 100 % of control | dose: 20.0 mg/kg/injection, schedule: Q01DX001 (ip), vehicle: acetone 103 % of control | dose: 20.0 mg/kg/injection, schedule: Q04DX003 (ip), vehicle: saline 103 % of control | dose: 40.0 mg/kg/injection, schedule: Q01DX001 (ip), vehicle: acetone 108 % of control | dose: 40.0 mg/kg/injection, schedule: Q04DX003 (ip), vehicle: saline 95 % of control | dose: 80.0 mg/kg/injection, schedule: Q01DX001 (ip), vehicle: acetone 100 % of control

O=C(O)CCCCCCCCCCCCCCCO
inactive: [17] 96 % of control | dose: 200.0 mg/kg/injection, schedule: Q04DX003 (ip), vehicle: saline with Tween-80 96 % of control | dose: 400.0 mg/kg/injection, schedule: Q04DX003 (ip), vehicle: saline with Tween-80 91 % of control

O=C(Nc1ccc(Cl)cc1)C(Cl)Cl
inactive: [15] 98 % of control | [19] 100 % of control | [16] 98 % of control | [20] 100 % of control | [18] 102 % of control | [21] 102 % of control

O=c1cc(C[n+]2ccccc2)[nH]c(=O)[nH]1
inactive: [5] 89 % of control | [14] 89 % of control

CCCC(=O)c1c(C)cc(C)cc1C
inactive: [15] 97 % of control | [16] 108 % of control | [18] 97 % of control

CN1/C(=C/C=N/NC(N)=S)C(C)(C)c2ccccc21
inactive: dose: 100.0 mg/kg/injection, schedule: Q01DX001 (ip), vehicle: carboxymethylcellulose (CMC) 102 % of control | dose: 200.0 mg/kg/injection, schedule: Q01DX001 (ip), vehicle: carboxymethylcellulose (CMC) 98 % of control | dose: 400.0 mg/kg/injection, schedule: Q01DX001 (ip), vehicle: carboxymethylcellulose (CMC) 98 % of control

COc1cc(/C=N\N=C\c2ccc(F)cc2)cc(OC)c1OC
inactive: [15] 93 % of control | [16] 93 % of control | [18] 88 % of control

CC(CC(=O)c1ccc2ccccc2c1)C(=O)O (stereo unspecified)
inactive: dose: 75.0 mg/kg/injection, schedule: Q04DX003 (ip), vehicle: Klucel (hydroxypropylcellulose) (HPC) 97 % of control | dose: 150.0 mg/kg/injection, schedule: Q04DX003 (ip), vehicle: Klucel (hydroxypropylcellulose) (HPC) 92 % of control | dose: 300.0 mg/kg/injection, schedule: Q04DX003 (ip), vehicle: Klucel (hydroxypropylcellulose) (HPC) 107 % of control

O=C(O)c1ccc(C(=O)O)c(O)c1O
inactive: [3] 120 % of control | dose: 100.0 mg/kg/injection, schedule: Q01DX001 (ip), vehicle: saline 100 % of control | dose: 100.0 mg/kg/injection, schedule: Q01DX009 (ip), vehicle: saline 105 % of control | [5] 89 % of control | dose: 200.0 mg/kg/injection, schedule: Q01DX001 (ip), vehicle: saline 92 % of control | dose: 200.0 mg/kg/injection, schedule: Q01DX009 (ip), vehicle: saline 116 % of control | [14] 96 % of control | dose: 400.0 mg/kg/injection, schedule: Q01DX001 (ip), vehicle: saline 94 % of control

O=C(COc1ccc([N+](=O)[O-])cc1Cl)Nc1cccc(S(=O)(=O)F)c1
inactive: [19] 98 % of control | [20] 106 % of control | [21] 91 % of control

CCOC(=O)CSc1ccc([N+](=O)[O-])cc1Cl
inactive: [15] 102 % of control | [6] 96 % of control and 101 % of control | [16] 106 % of control | [7] 104 % of control and 106 % of control | [18] 104 % of control | [8] 95 % of control and 101 % of control
